Assay results: ChEMBL document CHEMBL1127091, “Design of 5-(3,5-di-tert-butyl-4-hydroxyphenyl)-1,3,4-thiadiazoles, -1,3,4-oxadiazoles, and -1,2,4-triazoles as orally-active, nonulcerogenic antiinflammatory agents” (J Med Chem, 1993)

Key:
[1] = biological target: T1, Cyclooxygenase (Rattus norvegicus, UniProt P35355+Q63921)
T1 sequence (P35355 whole entry): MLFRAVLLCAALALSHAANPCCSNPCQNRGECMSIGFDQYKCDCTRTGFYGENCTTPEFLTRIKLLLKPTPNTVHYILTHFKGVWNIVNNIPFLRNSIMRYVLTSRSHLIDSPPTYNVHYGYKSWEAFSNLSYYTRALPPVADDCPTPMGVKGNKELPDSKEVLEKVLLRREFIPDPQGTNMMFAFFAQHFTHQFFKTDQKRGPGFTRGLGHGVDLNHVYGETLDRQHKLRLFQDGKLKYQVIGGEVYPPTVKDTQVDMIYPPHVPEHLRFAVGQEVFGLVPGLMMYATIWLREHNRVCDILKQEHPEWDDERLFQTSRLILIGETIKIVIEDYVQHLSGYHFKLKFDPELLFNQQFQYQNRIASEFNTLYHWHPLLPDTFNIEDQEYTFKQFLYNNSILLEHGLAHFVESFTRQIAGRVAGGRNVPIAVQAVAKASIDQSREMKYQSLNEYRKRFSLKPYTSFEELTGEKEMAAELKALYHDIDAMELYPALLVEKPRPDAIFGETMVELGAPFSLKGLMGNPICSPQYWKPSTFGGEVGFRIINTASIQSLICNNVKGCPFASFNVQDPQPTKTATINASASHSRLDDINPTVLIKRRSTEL
T1 sequence (Q63921 whole entry): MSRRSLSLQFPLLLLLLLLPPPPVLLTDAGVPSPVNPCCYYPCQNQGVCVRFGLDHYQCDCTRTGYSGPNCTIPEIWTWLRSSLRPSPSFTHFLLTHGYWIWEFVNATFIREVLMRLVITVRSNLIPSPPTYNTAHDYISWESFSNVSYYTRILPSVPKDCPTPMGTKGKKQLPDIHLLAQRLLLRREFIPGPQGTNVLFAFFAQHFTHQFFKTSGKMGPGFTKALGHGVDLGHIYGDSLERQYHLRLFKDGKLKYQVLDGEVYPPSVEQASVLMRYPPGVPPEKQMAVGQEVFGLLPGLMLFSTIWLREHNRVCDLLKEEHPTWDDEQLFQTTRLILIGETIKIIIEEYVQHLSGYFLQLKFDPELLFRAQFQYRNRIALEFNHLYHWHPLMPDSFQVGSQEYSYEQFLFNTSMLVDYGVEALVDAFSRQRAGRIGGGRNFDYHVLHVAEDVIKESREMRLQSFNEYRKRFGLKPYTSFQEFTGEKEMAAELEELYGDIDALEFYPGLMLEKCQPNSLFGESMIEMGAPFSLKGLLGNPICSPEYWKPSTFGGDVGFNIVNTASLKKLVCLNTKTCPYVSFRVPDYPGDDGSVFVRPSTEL
Description: Inhibition of prostaglandin G/H synthase by measuring the reduction of prostaglandin F2-alpha in intact basophilic rat leukemia cells

[2] = Partition coefficient (logP); assay type: physicochemical; settings: octanol/water
[3] = biological target: T2, Polyunsaturated fatty acid 5-lipoxygenase (Rattus norvegicus, UniProt P12527)
T2 sequence (P12527 whole entry): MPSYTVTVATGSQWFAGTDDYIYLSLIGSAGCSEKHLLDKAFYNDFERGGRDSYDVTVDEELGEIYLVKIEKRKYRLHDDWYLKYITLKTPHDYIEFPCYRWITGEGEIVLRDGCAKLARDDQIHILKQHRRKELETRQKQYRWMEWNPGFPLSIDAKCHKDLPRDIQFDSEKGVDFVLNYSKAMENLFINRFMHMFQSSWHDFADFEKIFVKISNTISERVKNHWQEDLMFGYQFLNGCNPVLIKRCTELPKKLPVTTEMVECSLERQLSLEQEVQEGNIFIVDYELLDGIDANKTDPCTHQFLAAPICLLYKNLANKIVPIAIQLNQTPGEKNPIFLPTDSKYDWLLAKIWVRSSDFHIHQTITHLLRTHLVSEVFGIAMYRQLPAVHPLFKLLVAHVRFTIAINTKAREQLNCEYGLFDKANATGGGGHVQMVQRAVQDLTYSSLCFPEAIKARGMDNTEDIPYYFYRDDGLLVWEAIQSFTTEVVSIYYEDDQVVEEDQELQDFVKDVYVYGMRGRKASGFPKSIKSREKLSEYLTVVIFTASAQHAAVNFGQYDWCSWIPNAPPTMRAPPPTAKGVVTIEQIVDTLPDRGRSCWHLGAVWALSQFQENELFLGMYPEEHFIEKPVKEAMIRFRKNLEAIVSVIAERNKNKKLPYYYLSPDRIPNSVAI
Description: Inhibition of 5-lipoxygenase measured by the reduction of leukotriene B4 (LTB4) in intact basophilic rat leukemia cells

[4] = tested on: Rattus norvegicus; experiment: In vivo inflammatory activity measured on Carrageenan foot-pad edema (CFE) in rats, peroral administration; assay type: functional
[5] = tested on: Rattus norvegicus; experiment: In vivo inflammatory activity measured on Mycobacterium foot-pad edema (MFE) model, peroral administration; assay type: functional
[6] = tested on: Rattus norvegicus; experiment: In vivo inflammatory activity measured on Gastric ulcerogenicity, expressed as percent rats with ulcers at 200 mg/kg, po (n= 10 rats per experimental group); assay type: functional, Stomach
[7] = biological target: T2, Polyunsaturated fatty acid 5-lipoxygenase; remark: listed apart in the source
Description: Tested for inhibition of 5-LO by measuring the reduction of leukotriene B4 (LTB4) in intact basophilic rat leukemia cells

[8] = tested on: Rattus norvegicus; experiment: In vivo inflammatory activity measured on Gastric ulcerogenicity (n= 10 rats per experimental group); assay type: functional, Stomach
[9] = tested on: Rattus norvegicus; experiment: In vivo inflammatory activity measured on Gastric ulcerogenicity, expressed as percent rats with ulcers at 10 mg/kg, po (n= 10 rats per experimental group); assay type: functional, Stomach
[10] = tested on: Rattus norvegicus; experiment: In vivo inflammatory activity measured on Mycobacterium foot-pad edema (MFE) model; assay type: functional
[11] = tested on: Rattus norvegicus; experiment: In vivo inflammatory activity measured on Gastric ulcerogenicity, (n= 10 rats per experimental group); assay type: functional, Stomach

Row | IC50 [1] [µM] | logP [2] | IC50 [3] [nM] | SMILES | other results
1 | > 30 | 3.1 | 5100 | CC(C)(C)c1cc(-c2n[nH]c(N)n2)cc(C(C)(C)C)c1O | –
2 | 2.4 | 3.7 | 700 | CC(C)(C)c1cc(-c2nnc(N)o2)cc(C(C)(C)C)c1O | ID40 [4]: 8.2 mg/kg
3 | – | 2.7 | – | CC(C)(C)c1cc(-c2n[nH]c(=S)s2)cc(C(C)(C)C)c1O.C[N+](C)(C)CCO | ID40 [4]: 1.1 mg/kg; ID40 [5]: 7.8 mg/kg; Activity [6]: 0%
4 | 5.5 | 3.1 | – | CC(C)(C)c1cc(-c2n[nH]c(O)n2)cc(C(C)(C)C)c1O | –
5 | – | > 4 | – | Cc1cc(/C=C/c2cc(C(C)(C)C)c(O)c(C(C)(C)C)c2)on1 | ID40 [5]: 33 mg/kg
6 | > 32 | 3.7 | > 32000 | Cn1c(S)nnc1-c1cc(C(C)(C)C)c(O)c(C(C)(C)C)c1 | –
7 | > 32 | 3.4 | 210 | CC(C)(C)c1cc(/C=C/c2nnc(O)o2)cc(C(C)(C)C)c1O | –
8 | – | 3.2 | – | Cn1c(O)nnc1-c1cc(C(C)(C)C)c(O)c(C(C)(C)C)c1 | –
9 | > 32 | 3.8 | 1600 | CC(C)(C)c1cc(/C=C/c2n[nH]c(O)n2)cc(C(C)(C)C)c1O | –
10 | 8 | – | 1100 | CC(C)(C)c1cc(/C=C/c2nnc(N)o2)cc(C(C)(C)C)c1O | –
11 | > 16 | 4 | 5900 | CC(C)(C)c1cc(-c2nnc(O)s2)cc(C(C)(C)C)c1O | –
12 | 0.35 | – | – | COc1c(C(C)(C)C)cc(-c2nnc(S)s2)cc1C(C)(C)C | IC50 [7]: 920 nM
13 | 2.5 | 3.4 | – | CC(C)(C)c1cc(-c2nnc(O)o2)cc(C(C)(C)C)c1O | –
14 | 0.65 | – | – | Cn1nc(-c2cc(C(C)(C)C)c(O)c(C(C)(C)C)c2)sc1=S | IC50 [7]: 5000 nM
15 | 9.4 | 3 | 580 | CC(C)(C)c1cc(/C=C/c2nnc(S)o2)cc(C(C)(C)C)c1O | –
16 | > 32 | 3.3 | > 32000 | CC(C)(C)c1cc(-c2nnc(S)n2N)cc(C(C)(C)C)c1O | –
17 | > 10 | – | > 10000 | CSc1nnc(/C=C/c2cc(C(C)(C)C)c(O)c(C(C)(C)C)c2)s1 | –
18 | 6.7 | 3.1 | 2400 | CC(C)(C)c1cc(/C=C/c2n[nH]c(S)n2)cc(C(C)(C)C)c1O | –
19 | 3.7 | 2.3 | 4800 | CC(C)(C)c1cc(-c2nnc(S)o2)cc(C(C)(C)C)c1O | ID40 [4]: 3.9 mg/kg; ID40 [5]: 59.9 mg/kg
20 | 0.13 | 3.7 | – | CC(C)(C)c1cc(-c2nnc(N)s2)cc(C(C)(C)C)c1O | ID40 [4]: 1.9 mg/kg; ID40 [5]: 2.3 mg/kg; Activity [6]: 10%
21 | – | > 4 | – | CC(C)(C)c1cc(/C=C2\CCOC2=O)cc(C(C)(C)C)c1O | UD50 [8]: 93.1 mg/kg; ID40 [4]: >10 mg/kg; ID40 [5]: 3.7 mg/kg
22 | 5.2 | > 4 | 1800 | CC(C)(C)c1cc(/C=C/c2nnc(S)s2)cc(C(C)(C)C)c1O | –
23 | – | > 4 | – | CON1CC/C(=C\c2cc(C(C)(C)C)c(O)c(C(C)(C)C)c2)C1=O [E-5110] | ID40 [4]: 24.1 mg/kg; Activity [9]: 10%; ID40 [10]: 1.9 mg/kg
24 | – | – | – | Cc1ccc(Cl)c(Nc2ccccc2C(=O)O)c1Cl [MECLOFENAMIC ACID] | ID40 [4]: 5.6 mg/kg; ID40 [5]: 0.35 mg/kg; UD50 [11]: 36.2 mg/kg

Row | SMILES | IC50 [1] [µM] | logP [2] | IC50 [3] [nM] | other results
25 | CC(C)(C)c1cc(-c2n[nH]c(S)n2)cc(C(C)(C)C)c1O | 0.78 | 2.4 | 11000 | –
26 | CSc1nnc(-c2cc(C(C)(C)C)c(O)c(C(C)(C)C)c2)s1 | 0.41 | > 4 | 1200 | –
